# Target: T1, Human orexin receptor type 2 (Homo sapiens, UniProt O43614)
# T1 construct: expressed in transfected cells; host or cells: CHO cells (transient expression)
# T1 sequence (O43614 1-444): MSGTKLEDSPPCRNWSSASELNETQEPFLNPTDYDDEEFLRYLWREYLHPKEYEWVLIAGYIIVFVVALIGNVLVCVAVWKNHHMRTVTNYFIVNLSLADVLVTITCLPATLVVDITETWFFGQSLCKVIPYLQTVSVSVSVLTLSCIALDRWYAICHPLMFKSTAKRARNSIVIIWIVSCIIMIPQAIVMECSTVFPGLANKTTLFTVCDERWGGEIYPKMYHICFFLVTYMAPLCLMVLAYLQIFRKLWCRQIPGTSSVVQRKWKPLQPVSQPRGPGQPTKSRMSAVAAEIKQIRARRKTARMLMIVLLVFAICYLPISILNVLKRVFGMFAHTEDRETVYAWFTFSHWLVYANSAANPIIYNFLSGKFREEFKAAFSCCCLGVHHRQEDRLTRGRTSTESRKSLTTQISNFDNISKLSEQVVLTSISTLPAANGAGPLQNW
# Experiment: Test 2: Evaluation of agonist activity for orexin receptor type 2 (aequorin luminescence, intracellular calcium mobilization in CHO cells)
# Format: cell-based
# Conditions: relative percentage of luminescence for the luminescence (100%) of Orexin A (100 pM); CHO cells transiently expressing human orexin receptor type 2 and apoaequorin; Orexin A Lot. 671009
# How it was run: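 CHO cells transiently co-expressing the receptor and apoaequorin, incubated 16–22 h, were loaded 2 h at room temperature with 1 μM coelenterazine hcp (final). Compounds in Hanks/20 mM HEPES/0.1% BSA (0.1% DMSO final) were added and the calcium luminescence was read and expressed as % of Orexin A (100 pM).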
row,agonist activity (%),Compound
1,385%,"CN(CC1CC1)[C@H]1CCN([C@H]2CCCC(F)(F)[C@@H]2NC(=O)N2CCC(C)(c3noc(C4CC4)n3)CC2)C1 [Example 138, N-[(1R,6S)-6-{(3S)-3-[(cyclopropylmethyl)(methyl)amino]pyrrolidin-1-yl}-2,2-difluorocyclohexyl]-4-(5-cyclopropyl-1,2,4-oxadiazol-3-yl)-4-methylpiperidine-1-carboxamide]"
2,249%,"CN(CC1(C(F)(F)F)CC1)C1CCN([C@H]2CCCC(F)(F)[C@@H]2NC(=O)N2CCC(C)(c3noc([C@@H]4C[C@@H]4F)n3)CC2)CC1 [Example 140, N-{(1R,6S)-2,2-difluoro-6-[4-(methyl{[1-(trifluoromethyl)cyclopropyl]methyl}amino)piperidin-1-yl]cyclohexyl}-4-{5-[(1S,2S)-2-fluorocyclopropyl]-1,2,4-oxadiazol-3-yl}-4-methylpiperidine-1-carboxamide]"
3,399%,"CN(CC1CC1)[C@H]1CCCN([C@H]2CCCC(F)(F)[C@@H]2NC(=O)N2CCC(C)(c3noc([C@@H]4C[C@@H]4F)n3)CC2)CC1 [Example 144, N-[(1R,6S)-6-{(4S)-4-[(cyclopropylmethyl)(methyl)amino]azepan-1-yl}-2,2-difluorocyclohexyl]-4-{5-[(1S,2S)-2-fluorocyclopropyl]-1,2,4-oxadiazol-3-yl}-4-methylpiperidine-1-carboxamide]"
4,437%,"CC1(CN2CC[C@H](O[C@H]3CCCC(F)(F)[C@@H]3NC(=O)N3CCC(C)(c4noc([C@@H]5C[C@@H]5F)n4)CC3)C2)COC1 [Example 150, N-[(1R,6S)-2,2-difluoro-6-({(3S)-1-[(3-methyloxetan-3-yl)methyl]pyrrolidin-3-yl}oxy)cyclohexyl]-4-{5-[(1S,2S)-2-fluorocyclopropyl]-1,2,4-oxadiazol-3-yl}-4-methylpiperidine-1-carboxamide]"
5,350%,"CC(C)N1CCN(C(=O)O[C@H]2CCCC(F)(F)[C@@H]2NC(=O)N2CCC(C)(c3noc([C@@H]4C[C@@H]4F)n3)CC2)CC1 [Example 153, (1S,2R)-3,3-difluoro-2-[(4-{5-[(1S,2S)-2-fluorocyclopropyl]-1,2,4-oxadiazol-3-yl}-4-methylpiperidine-1-carbonyl)amino]cyclohexyl 4-(propan-2-yl)piperazine-1-carboxylate]"
6,392%,"CC(C)CN(C)C1CCN([C@H]2CCCC(F)(F)[C@@H]2NC(=O)N2CCC(C)(c3noc([C@@H]4C[C@@H]4F)n3)CC2)CC1 [Example 157, N-[(1R,6S)-2,2-difluoro-6-{4-[methyl(2-methylpropyl)amino]piperidin-1-yl}cyclohexyl]-4-{5-[(1S,2S)-2-fluorocyclopropyl]-1,2,4-oxadiazol-3-yl}-4-methylpiperidine-1-carboxamide]"
7,389%,"CN(CC1CC1)C1CCN([C@H]2CCCC(F)(F)[C@@H]2NC(=O)N2CCC(C)(c3noc([C@@H]4C[C@@H]4F)n3)CC2)CC1 [Example 158, N-[(1R,6S)-6-{4-[(cyclopropylmethyl)(methyl)amino]piperidin-1-yl}-2,2-difluorocyclohexyl]-4-{5-[(1S,2S)-2-fluorocyclopropyl]-1,2,4-oxadiazol-3-yl}-4-methylpiperidine-1-carboxamide]"
8,392%,"CN(C1CCC1)C1CCN([C@H]2CCCC(F)(F)[C@@H]2NC(=O)N2CCC(C)(c3noc([C@@H]4C[C@@H]4F)n3)CC2)CC1 [Example 159, N-[(1R,6S)-6-{4-[cyclobutyl(methyl)amino]piperidin-1-yl}-2,2-difluorocyclohexyl]-4-{5-[(1S,2S)-2-fluorocyclopropyl]-1,2,4-oxadiazol-3-yl}-4-methylpiperidine-1-carboxamide]"

# The remaining lines, values behind:
row,Compound,agonist activity (%)
1,"CC(C)(F)CN1CC[C@H](O[C@H]2CCCC(F)(F)[C@@H]2NC(=O)N2CCC(C)(c3noc([C@@H]4C[C@@H]4F)n3)CC2)C1 [Example 143, N-[(1R,6S)-2,2-difluoro-6-{[(3S)-1-(2-fluoro-2-methylpropyl)pyrrolidin-3-yl]oxy}cyclohexyl]-4-{5-[(1S,2S)-2-fluorocyclopropyl]-1,2,4-oxadiazol-3-yl}-4-methylpiperidine-1-carboxamide]",444%
2,"CN(CC1CC1)[C@@H]1CCCN([C@H]2CCCC(F)(F)[C@@H]2NC(=O)N2CCC(C)(c3noc([C@@H]4C[C@@H]4F)n3)CC2)CC1 [Example 145, N-[(1R,6S)-6-{(4R)-4-[(cyclopropylmethyl)(methyl)amino]azepan-1-yl}-2,2-difluorocyclohexyl]-4-{5-[(1S,2S)-2-fluorocyclopropyl]-1,2,4-oxadiazol-3-yl}-4-methylpiperidine-1-carboxamide]",403%
3,"CC(C)N1CCN([C@H]2CCCC(F)(F)[C@@H]2N(C)C(=O)N2CCC(C)(c3noc([C@@H]4C[C@@H]4F)n3)CC2)CC1 [Example 146, N-{(1R,6S)-2,2-difluoro-6-[4-(propan-2-yl)piperazin-1-yl]cyclohexyl}-4-{5-[(1S,2S)-2-fluorocyclopropyl]-1,2,4-oxadiazol-3-yl}-N,4-dimethylpiperidine-1-carboxamide]",23%
4,"CC(C)N1CCN([C@H]2CCCC(C)(C)[C@@H]2NC(=O)N2CCC(C)(c3noc(C4CC4)n3)CC2)CC1 [Example 147, 4-(5-cyclopropyl-1,2,4-oxadiazol-3-yl)-N-{(1S,6S)-2,2-dimethyl-6-[4-(propan-2-yl)piperazin-1-yl]cyclohexyl}-4-methylpiperidine-1-carboxamide]",373%
5,"CC(C)N(C)C1CN([C@H]2CCCC(F)(F)[C@@H]2NC(=O)N2CCC(C)(c3noc([C@@H]4C[C@@H]4F)n3)CC2)C1 [Example 148, N-[(1R,6S)-2,2-difluoro-6-{3-[methyl(propan-2-yl)amino]azetidin-1-yl}cyclohexyl]-4-{5-[(1S,2S)-2-fluorocyclopropyl]-1,2,4-oxadiazol-3-yl}-4-methylpiperidine-1-carboxamide]",391%
6,"CN(CC1CC1)C1CN([C@H]2CCCC(F)(F)[C@@H]2NC(=O)N2CCC(C)(c3noc([C@@H]4C[C@@H]4F)n3)CC2)C1 [Example 149, N-[(1R,6S)-6-{3-[(cyclopropylmethyl)(methyl)amino]azetidin-1-yl}-2,2-difluorocyclohexyl]-4-{5-[(1S,2S)-2-fluorocyclopropyl]-1,2,4-oxadiazol-3-yl}-4-methylpiperidine-1-carboxamide]",419%
7,"CC(C)N1CCCN([C@H]2CCCC(F)(F)[C@@H]2NC(=O)N2CCC(C)(c3noc([C@@H]4C[C@@H]4F)n3)CC2)CC1 [Example 152, N-{(1R,6S)-2,2-difluoro-6-[4-(propan-2-yl)-1,4-diazepan-1-yl]cyclohexyl}-4-{5-[(1S,2S)-2-fluorocyclopropyl]-1,2,4-oxadiazol-3-yl}-4-methylpiperidine-1-carboxamide]",470%
8,"CC(C)N1CCC(S[C@H]2CCCC(F)(F)[C@@H]2NC(=O)N2CCC(C)(c3noc([C@@H]4C[C@@H]4F)n3)CC2)CC1 [Example 154, N-[(1S,6S)-2,2-difluoro-6-{[1-(propan-2-yl)piperidin-4-yl]sulfanyl}cyclohexyl]-4-{5-[(1S,2S)-2-fluorocyclopropyl]-1,2,4-oxadiazol-3-yl}-4-methylpiperidine-1-carboxamide]",493%
9,"CC(C)N1CCC(S(=O)(=O)[C@H]2CCCC(F)(F)[C@@H]2NC(=O)N2CCC(C)(c3noc([C@@H]4C[C@@H]4F)n3)CC2)CC1 [Example 155, N-{(1S,6S)-2,2-difluoro-6-[1-(propan-2-yl)piperidine-4-sulfonyl]cyclohexyl}-4-{5-[(1S,2S)-2-fluorocyclopropyl]-1,2,4-oxadiazol-3-yl}-4-methylpiperidine-1-carboxamide]",167%
10,CC(C)N1CCN([C@H]2CCC[C@H](F)[C@@H]2NC(=O)N2CCC(C)(c3noc([C@@H]4C[C@@H]4F)n3)CC2)CC1 [Example 156],323%

# Same assay, conditions: relative percentage of luminescence for the luminescence (100%) of Orexin A (100 pM); CHO cells transiently expressing human orexin receptor type 2 and apoaequorin; Orexin A Lot. 671009; 0.0001 µM
row,Compound,agonist activity (%)
1,"CN(CC1CC1)C1C[C@H]2CC[C@@H](C1)N2[C@H]1CCCC(F)(F)[C@@H]1NC(=O)N1CCC(C)(c2noc([C@@H]3C[C@@H]3F)n2)CC1 (stereo partly drawn) [Example 141, N-[(1R,6S)-6-{(1R,3R,5S)-3-[(cyclopropylmethyl)(methyl)amino]-8-azabicyclo[3.2.1]octan-8-yl}-2,2-difluorocyclohexyl]-4-{5-[(1S,2S)-2-fluorocyclopropyl]-1,2,4-oxadiazol-3-yl}-4-methylpiperidine-1-carboxamide]",405%
2,"CN(CC1CC1)C1C[C@H]2CC[C@@H](C1)N2[C@H]1CCCC(F)(F)[C@@H]1NC(=O)N1CCC(C)(c2noc([C@@H]3C[C@@H]3F)n2)CC1 (stereo partly drawn) [Example 142, N-[(1R,6S)-6-{(1R,3S,5S)-3-[(cyclopropylmethyl)(methyl)amino]-8-azabicyclo[3.2.1]octan-8-yl}-2,2-difluorocyclohexyl]-4-{5-[(1S,2S)-2-fluorocyclopropyl]-1,2,4-oxadiazol-3-yl}-4-methylpiperidine-1-carboxamide]",407%
